# Test results: patent US6773705B1, “Methods for diagnosing and treating autoimmune disease” (General Hospital Corporation, priority 1998, dated 2004)
# Square brackets hold non-standard residues; d marks the D form. Peptide text beside a SMILES is read from it. * marks the point of attachment. Nva = CCC[C@H](N)C(=O)O; Cbz = O=C(OCc1ccccc1)*
# How the values were obtained:
# 20S proteasome [1] = experiment: In vitro p105/p60Tth processing assay with mouse spleen cytosolic extracts; type: biochemical; settings: MG115 50 μM, FIG. 12A, 12B right
# Experimental: To investigate whether the altered abundance of p50 in NOD mouse spleen cells could be attributable to defective processing of p105 by the proteasome, the processing of p105 by cytosolic extracts of NOD mouse spleen cells was examined using recombinant p105 or the truncated version p60Tth as substrates. The in vitro p105 processing assay reaction was performed as previously described (Fan and Maniatis, 1991, supra). In brief, p105 and p60Tth expression constructs were subjected to in vitro transcription and translation in a wheat germ extract system (Promega) in the presence of [^35S]methionine. The ^35S-labeled p105 and p60th proteins were immunoprecipitated with polyclonal antibodies to p50 and purified for use as substrates. Each substrate protein was incubated for 90 minutes at 30° C. with spleen cytosolic extract (20 or40 μg of protein) in a final volume of 25 μl in the absence or presence of 10 mM ATP (Palombella et al., 1994, supra). The proteasome inhibitor MG115 was also added to the reaction mixture where indicated (FIG. 12). The processed proteins were separated by SDS-polyacrylamide gel electrophoresis (PAGE) on a 10% gel and visualized by autoradiography. […] When p60Tth was incubated with cytosolic extracts of BALB/c cells in the presence of […], mature p50 was generated (FIG. 12A, center). […]
# proteasome = experiment: In vitro p105 processing assay with cytoplasmic extracts of T1, T2, Molt-4 and Jurkat cells; type: biochemical; settings: 50 μg MG115; cell line cytoplasmic extracts; FIG. 12G
# Experimental: The labeled p105 was incubated with the cytosolic extracts of these cell lines (20 or 40 μg of protein at left and center) and the reaction mixtures were incubated with (center; FIGS. 12E, F and G) or without (upper; FIGS. 12E, F and G) 10 mM ATP in a wheat germ extract system (Promega) as above. Incubations were also performed in the absence (−) or presence (+) of 50 μg MG115 (lower; FIGS. 12E, F and G). Lane 1 in all gels presented in FIGS. 12E, F and G corresponds to reaction mixtures without substrate. Incubations were performed at 30° C. for 90 minutes, after which the reaction mixtures were analyzed by SDS-PAGE and autoradiography. […] When p105 was incubated with the cytoplasmic extracts of T1 cells, Molt-4 cells and Jurkat cells in the presence of 10 mM ATP, the mature p50 was detected (FIG. 12F); however, the p50 was not generated by incubation of p105 with the cytoplasmic extracts prepared from T2 cells in the presence of 10 mM ATP (FIG. 12F, lanes 4 and 5). To verify that the maturation processing of p50 in the in vitro reaction was mediated by the proteasome processing pathway, the effect of MG115 on proteasome function was examined.
# 20S proteasome [2] = settings: MG115 50 μM; Palombella et al., 1994; cited from earlier work
# NF-κB [3] = experiment: EMSA of nuclear NF-κB DNA-binding activity in TNF-α-treated cell lines; type: cell-based; settings: TNF-α 10 ng/ml, 4 h, FIG. 11A
# Experimental: Furthermore, in the […] cell line, in which Lmp2 and Lmp7 genes have been deleted, NF-κB is not activated in response to TNF-α. The effect of TNF-α treatment on the DNA-binding activity of nuclear NF-κB was examined (FIG. 11). EMSA was performed such that cell extracts from mutant T2 cells compared to those of control T1 cells, Molt-4 cells and Jurkat cells after stimulation for 4 h in the absence (−) or presence (+) of 10 ng/ml TNF-α.
# -unlabeled oligonucleotide (κB1). Double-stranded oligodeoxynucleotides were synthesized on a DNA synthesizer by the phosphoramidite method and purified on an OPC cartridge. […] The DNA-protein complexes were resolved by electrophoresis on nondenaturing 8% polyacrylamide gels with 0.5×TBE (Tris-borate-EDTA) buffer at 4° C. For competition experiments, nuclear extracts was incubated for […] at 4° C. with a 100-fold molar excess of unlabeled κB oligonucleotide before addition of the radioactive probe. Cytosolic extracts were treated with 1.2% NP-40 and 0.8% deoxycholate to dissociate IκB from NF-κB before incubation with 3^2P-labeled probe. For supershift assays, nuclear extracts were incubated with specific antibodies in 1 hour at 4° C. before addition of DNA probes. Lanes 1 correspondes to negative controls in which nuclear extract was not added.
# IκBα = experiment: Immunoblot of cytosolic IκBα in TNF-α-treated spleen lymphocytes; type: cell-based, mouse; settings: TNF-α 10 ng/ml, FIG. 10B
# Experimental: The basal expression of NF-κB subunits, IκBa and cyclin-dependent kinases was examined by immunoblot analysis of cytosolic and nuclear extracts of male (M) or female (F) BALB/c and NOD mouse spleen cells (FIG. 10). In these experiments, extracts of spleen cells were subjected to SDS-PAGE on a 12.5% gel under non-reducing conditions. The separated proteins were transferred electrophoretically to a polyvinylidene difluoride (PVDF) membrane which was then incubated for 2 hours at room temperature with TBS-T (20 mM Tris-HCl, pH 7.6; 137 mM NaCl; 0.05% volume/volume Tween 20) containing 8% (weight/volume) bovine serum albumin. The membrane was then incubated for 12 h at 4° C. with TBS-T containing the appropriate polyclonal antibodies, washed 4×5 minutes with TBS-T at room temperature, incubated for 2 hours at room temperature with TBS-T containing alkaline phosphatase-conjugated secondary antibodies, washed five times with TBS-T and subjected to the alkaline phosphatase color reaction. […]
# To assess the dynamics of IκBα protein expression occurring during lymphocyte activation by TNF-α treatment, subcellular fractions from lymphocytes derived from BALB/c and NOD spleen were treated with 10 ng/ml TNF-α. […] IκBα protein was readily detected in the cytosolic extracts from both unstimulated lymphocytes, BALB/c and NOD. […]
# spleen cells = experiment: TNF-α cytotoxicity of spleen cells (viable cell count, DNA fragmentation); type: cell-based, mouse
# Experimental: One critical function of NFκB is to provide protection to cells from the effects of exogenous TNF-α. […] Spleen cells were cultured for 24 hours after exposure to various concentrations (2, 5, 10 or 20 ng/ml) of TNF-α, as indicated on the X axis of the figure. Viable cells remaining after TNF-α treatment are shown as a percentage of viable control (untreated) cells. Standard deviations were calculated from four independent readings within a single experiment. The survival over time of cells treated with TNF-α is charted in FIG. 13B. Spleen cells were treated with TNF-α (10 ng/ml), and viable cells were counted at various times following treatment as indicated on the X axis of the figure.
# (§1) DNA fragmentation was evaluated and detected by agarose gel electrophoresis after spleen cells were cultured in 10 ng/ml TNF-α for 24 hours. […] Embryonic fibroblasts prepared from BALB/c and NOD mice were cultured DMEM containing 10% fetal bovine serum and then incubated with various concentrations of TNF-α for 24 hours (FIG. 13D, top) or with TNF-α at 10 ng/ml for the indicated times (FIG. 13D, bottom). Cell viability was assessed by trypan blue exclusion. Data are means±SD of four replicates from a representative experiment, and are expressed as a percentage of the survival value for the corresponding cells not exposed to TNF-α.
# [4] = system: mouse embryonic fibroblasts (MEF); experiment: TNF-α cytotoxicity of embryonic fibroblasts (trypan blue exclusion); type: cell-based; settings: NOD MEF; various TNF-α concentrations 24 hours or 10 ng/ml over time; FIG. 13D
# Experimental: as §1
# NF-κB [5] = experiment: EMSA of NF-κB DNA-binding activity in nuclear extracts of TNF-α-treated spleen cells; settings: NOD mouse spleen cells (male and female); TNF-α 10 ng/ml, 4 hours; FIG. 8A
# Experimental: In order to assess the influence of TNF-α on NFκB in an in vitro system, a DNA/protein binding assay was undertaken. Nuclear extracts were prepared from BALB/C and NOD mice by methods described above. The binding activities were examined by EMSA with ^32P end-labeled oligonucleotide containing an NFκB recognition sequence. Spleen cells were stimulated with TNF-α treatment (10 ng/ml;+) or without TNF-α treatment (−) and nuclear extracts from the treated cells were prepared 4 hours later. Nuclear extract prepared from spleen cells of BALB/C (lanes 2-5; FIG. 8A) and NOD (lanes 6-9; FIG. 8A) mice and Molt-4 cells (lanes 10 and 11; FIG. 8A) were incubated with DNA probe as follows:
# Double-stranded κB wt, κB mut or IL-R2α κB oligonucleotides were end-labeled using [α-^32P]dCTP and Klenow polymerase. Binding reactions of the DNA probe with nuclear extracts were performed at 37° C. for minutes in a total volume of 10 μl of buffer containing 10 mM Hepes (H 7.9), 50 mM KCl, 5 mM Tris-HCl (pH 7.0), 1 mM DTT, 15 mM EDTA, 10% (v/v) glycerol, 1.0 μg of poly (dI.dC), and 4 ng of the labeled probe. The DNA-protein complexes were resolved on nondenaturing 8% polyacrylamide gels. Electrophoresis was performed with 0.5×TBE buffer (4.5 mM Tris-HCl, 4.5 mM boric acid, 0.1 mM EDTA) at 4° C. A negative binding control, to which no nuclear extract was added, was run in lane 1. […]
# [6] = target: T1, NFκBp65-associated protein kinase (cytosolic); experiment: In vitro kinase assay, GST-CTD phosphorylation by GST-NFκBp65-precipitated complexes from Molt-4 cytosolic extract; type: biochemical, human; settings: GST-CTD substrate, FIG. 1C
# T1 construct: other: cytosolic; GST-C
# Experimental: (§2) GST-NFκp65 and GST-CTD were expressed in BL21 pLysS E. Coli cells and purified by selective absorption to glutathione sepharose beads. GST-NFκBp65 was incubated with Molt-4 cytosolic and nuclear extracts, prepared as described above. Reaction mixtures were washed in PBS. The precipitated complexes were then incubated with GST-CTD of RNA polymerase II large subunit in kinase buffer containing γ-[^32P]ATP as previously described (Hayashi et al., 1993, J. Biol. Chem., 268: 26790-26795; Faustman et al., 1989, Diabetes, 38: 1462-1468). One-fortieth of the input (I) and supernatant (S) fractions and 1/40 of the last wash (W) and pellet (P) fractions were used for in vitro kinase reaction. Protein complexes were collected by brief centrifugation, washed and then incubated with GST-CTD substrates in kinase buffer containing y-^32P ATP. The products of the in vitro kinase reactions were then analyzed on SDS-PAGE. […] To determine whether the kinase activity of NFκBp65-associated protein kinase were sensitive to DRB, the ability of DRB to inhibit the kinase activity of NFκBp65 association protein kinase was tested by examining the phosphorylation of CTD in the presence of different concentrations of DRB. […] Quantitation of the gel shown in FIG. 1C with an image analyzer (a BAS 3000 phosphorimager) was plotted on a graph. […]
# [7] = target: NFκBp65-associated protein kinase (nuclear); type: biochemical, human; settings: GST-CTD substrate, FIG. 1C
# Experimental: as §2
compound,measurement,setting,value
CCC[C@@H](C=O)NC(=O)[C@H](CC(C)C)NC(=O)[C@H](CC(C)C)NC(=O)OCc1ccccc1 [MG115] (Cbz-Leu-Leu-[Nva]-aldehyde),processing of p105 and p60Tth,20S proteasome [1],completely inhibited
same,p105 processing to p50,proteasome,clearly resulted in defective p105 processing
same,processing of p105,20S proteasome [2],prevent the processing of p105
TNF-α,expression of the active nuclear form of NF-κB on EMSA,"NF-κB [3]; T1, Molt-4 and Jurkat cells",markedly detected
same,NF-κB activity,"NF-κB [3]; T2 cells (Lmp2, Lmp7 deleted)",not induced
same,time to disappearance of cytosolic IκBα,IκBα; BALB/c lymphocytes,≤ 40 min
same,cytosolic IκBα during TNF-α treatment,IκBα; NOD lymphocytes,clearly detected after 40 minutes of stimulation and then stably expressed
same,DNA fragmentation by agarose gel electrophoresis,"spleen cells; NOD but not BALB/c spleen cells, TNF-α 10 ng/ml, 24 hours, FIG. 13C",resulted in apoptosis
same,"toxicity, cell survival","spleen cells; NOD spleen cells, TNF-α 2-20 ng/ml, 24 hours, or 10 ng/ml over time, FIG. 13A, 13B",toxic
same,cellular toxicity,[4],no cellular toxicity
same,NF-κB activation,NF-κB [5],only slightly induced
"OC[C@H]1O[C@@H](n2cnc3cc(Cl)c(Cl)cc32)[C@H](O)[C@@H]1O [DRB, 5,6-dichloro-1-β-D-ribofuranosylbenzimidazole]",concentration required for 50% inhibition of the activity of NFκBp65-associated protein kinase,[6],10 µM
same,concentration required for 50% inhibition of the activity of NFκBp65-associated protein kinase,[7],1 µM
